Assay results: patent US20230065562A1, “DUAL CONTROLS FOR THERAPEUTIC CELL ACTIVATION OR ELIMINATION” (Bellicum Pharmaceuticals, Inc., priority 2015, published 2023)

Experiments:
[1] = system: iCasp9M.IRES.GFPhigh-transduced CTLs in LCL xenograft; assay: SCID mouse-human xenograft model, elimination of iCasp9M-transduced CTLs; assay type: in vivo, NOD/SCID mice; settings: single dose of CID (50 μg AP20187 i.p.), 3 days after
Procedure: Non-obese diabetic severe combined immunodeficient (NOD/SCID) mice, 6 to 8 weeks of age, were irradiated (250 rad) and injected subcutaneously in the right flank with 10×10^6 to 15×10^6 LCLs resuspended in Matrigel (BD Bioscience). Two weeks later mice bearing tumors that were approximately 0.5 cm in diameter were injected into the tail vein with a 1:1 mixture of nontransduced and iCasp9.I.GFPhigh-transduced EBV CTLs (total 15×10^6). At 4 to 6 hours prior and 3 days after CTL infusion, mice were injected intraperitoneally with recombinant hIL-2 (2000 U; Proleukin; Chiron). […] By FACS analysis, the number of GFP^+ cells within the gated CD3^+ population was evaluated. […]
The function of iCasp9M also was evaluated in transduced EBV-CTLs in vivo. […] Three days after CID/carrier administration, tumors were analyzed for human CD3^+/GFP^+ cells. […]
The function of iCasp9M in vivo, was assayed. […] On day 3 after CTL administration, mice received either CID (50 µg AP20187; (black diamonds, n=6) or carrier only (black squares, n=5) and on day 6 the presence of human CD3^+/GFP^+ T cells in the tumors was analyzed. Human CD3^+ T cells isolated from the tumors of a control group of mice that received only nontransduced CTLs (15×10^6 CTLs; n=4) were used as a negative control for the analysis of CD3^+/GFP^+ T cells within the tumors.

[2] = system: HPAC PSCA+ tumor cells; assay: T cell anti-tumor assay with HPAC-RFP cells (IncuCyte, ELISA); assay type: cell-based, human; settings: 10 nM on day 7 of co-culture
Procedure: PBMCs from donor 920 were activated and co-transduced with GFP-Ffluc and iMC+CARζ-T (189), i9+CARζ+MC (873), or FwtFRBC9/MC.FvFv (1308)-encoding vectors. […] (A & B) Two days post-seeding, culture supernatants were analyzed for IL-2, IL-6, and IFN-γ production by ELISA. […] Numbers of HPAC-RFP and T cell-GFP at the E:T 1:2 ratio was analyzed using the basic analyzer software for the IncuCyte at day 7 (Ci) and day 8 with 0 nM suicide drug (Cii) and 10 nM suicide drug (Ciii). Similar analysis was also performed at the 1:5 E:T ratio (D). (Note: the y-axis in Ci and Di are at log-scale).
The HPAC PSCA^+ tumor cells were stably labeled with nuclear-localized RFP protein using the NucLight™ Red Lentivirus Reagent (Essen Bioscience, 4625). To set up the coculture, 4000 HPAC-RFP cells were seeded per well of 96-well plates in 100 μl of CTL medium without IL-2 for at least 4 hours to allow tumor cells to adhere. After transduction with the appropriate retrovirus and allowed to rest for at least 7 days in culture, T were seeded according to various E:T ratios to the HPAC-RFP-containing 96-well plates. […] Each plate was set up in duplicates, one plate to monitor with the IncuCyte cell imaging system and one plate for supernatant collection for ELISA assay on day 2. The plates were centrifuged for 5 min at 400×g and placed inside the IncuCyte (Essen Bioscience, Dual Color Model 4459) to monitor red fluorescence (and green fluorescence if T cells were labeled with GFP-Ffluc) every 2-3 hours for a total of 7 days at 10× objective. Image analysis was performed using the “HPAC-RFP_TcellsGFP_10×_MLD” processing definition. On day 7, HPAC-RFP cells were analyzed using the “Red Object Count (1/well)” metric. […] On day 8, Tcell-GFP cells were analyzed using the “Total Green Object Integrated Intensity” metric. Each condition was performed at least in duplicates and each well was imaged at 4 different locations.

[3] = system: T cells expressing iC9; assay: T cell killing assay with caspase 3/7 green reagent monitored by IncuCyte, iC9; assay type: cell-based, human; settings: increasing doses, PBMCs from 3 donors, FIG. 108B
From the text: To determine the functionality of these switches in activated T cells, retroviral supernatants were produced and transduced into PBMCs activated from 3 separate donors.

[4] = system: CD123+ THP-1 tumor cells; assay: NSG tumor xenograft model, THP-1-EGFPluc, iMC-CD123.ζ-modified T cells with Rim; assay type: in vivo, mouse; settings: costimulation by systemic rimiducid administration (1 mg/kg i.p. days 0 and 15)
Procedure: Animal experiments: In vivo efficacy of iMC-CD123.ζ-modified T cells was assessed using an immune-deficient NSG tumor xenograft model. One million EGFPluc-expressing CD123^+ THP-1 tumor cells were injected i.v. into the animals, followed by a single i.v. injection on day 7 with varying non-transduced or iMC-CD123.ζ-modified T cells. Groups receiving CAR-T cells subsequently received i.p. injections of Rim (1 mg/kg) or vehicle only on days 0 and 15 post-T cell injection. Animals were evaluated for THP-1-EGFPluc tumor burden and weight change on a weekly basis using IVIS bioluminescent imaging (BLI) and for T cell persistence by flow cytometry and qPCR at day 30 post-T cell injection.
FIG. 114. (A) PBMCs were activated and transduced with retrovirus including the CD123 iMC-CARζ vector. Twelve days after transduction, CAR expression was determined using anti-Q-bend10 antibody before injection into mice. […] (C) THP1-GFP.Fluc growth was measured using IVIS bioluminescence. (D, E) On day 30, mice were sacrificed and spleens were analyzed for the presence of CAR-T cells by flow cytometry and vector copy number assay.
(B) On day 29, mice were sacrificed and spleens were analyzed for the presence of CAR-T cells by vector copy number assay.

[5] = system: SLL-peptide pulsed T2 cells; assay: IL-2 secretion of iMC-PRAME TCR T cells with SLL-peptide pulsed T2 cells; assay type: cell-based; settings: FIG. 117D
[6] = system: HLA-A2+PRAME+ U2OS osteosarcoma; assay: iMC-PRAME TCR cytotoxicity and IL-2 secretion against U2OS; assay type: cell-based
From the text: The Go156 TCR is a negative control TCR.

Row | SMILES | reduction in the number of human CD3+/GFP+ T cells versus carrier ([1]; listed as CID) | reduction in the number of human CD3+/GFP+ T cells versus carrier ([1]; listed as dimerizer) | reduction of i9+CARζ+MC T cells [2] | activation of iC9 in T cells (caspase 3/7) [3] | eradication of CD123+ leukemic cells by iMC-CARζ T cells [4] | IL-2 secretion, PRAME TCR with iMC [5] | iMC-PRAME TCR-mediated cytotoxicity against U2OS ([6]; FIG. 119A) | IL-2 secretion, PRAME TCR with rimiducid-driven iMC costimulation, U2OS ([6]; FIG. 119B)
1 | CC[C@H](C(=O)N1CCCC[C@H]1C(=O)O[C@H](CCc1ccc(OC)c(OC)c1)c1cccc(OCC(=O)NCC(CNC(=O)COc2cccc([C@@H](CCc3ccc(OC)c(OC)c3)OC(=O)[C@@H]3CCCCN3C(=O)[C@@H](CC)c3cc(OC)c(OC)c(OC)c3)c2)CN(C)C)c1)c1cc(OC)c(OC)c(OC)c1 [AP20187] | > 99% | more than 99% | – | – | – | – | – | –
2 | CC[C@H](C(=O)N1CCCC[C@H]1C(=O)O[C@H](CCc1ccc(OC)c(OC)c1)c1cccc(OCC(=O)NCCNC(=O)COc2cccc([C@@H](CCc3ccc(OC)c(OC)c3)OC(=O)[C@@H]3CCCCN3C(=O)[C@@H](CC)c3cc(OC)c(OC)c(OC)c3)c2)c1)c1cc(OC)c(OC)c(OC)c1 [rimiducid] | – | – | approximately 50% | can activate | efficiently eradicated | maximal IL-2 secretion | rimiducid-independent | maximal IL-2 secretion
